# According to PubChem BioAssay AID256 (DTP/NCI, 2004):
# Values joined by “and” are separate entries in the source; they are usually repeats but may differ in a detail not shown here. Identical values can stand only once. Inconclusive results and toxic doses are left out.
# Tested on: CD2F1 mice, L1210 leukemia ip, survival T/C
# Assay: NCI In Vivo Anticancer Drug Screen. Data for tumor model L1210 Leukemia (intraperitoneal) in CD2F1 (CDF1) mice
# Settings: higher = longer survival
# In short: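 Tumor-bearing mice (transplanted tumor) were split into treated and vehicle control groups, and the measured endpoint of each treated group was divided by that of its vehicle controls.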
# [1] = endpoint: mean survival time, dose: 100.0 mg/kg/injection, schedule: Q04DX003 (ip), vehicle: saline with Tween-80
# [2] = endpoint: mean survival time, dose: 200.0 mg/kg/injection, schedule: Q04DX003 (ip), vehicle: saline with Tween-80
# [3] = endpoint: mean survival time, dose: 400.0 mg/kg/injection, schedule: Q04DX003 (ip), vehicle: saline with Tween-80
# [4] = endpoint: mean survival time, dose: 50.0 mg/kg/injection, schedule: Q01DX009 (ip), vehicle: saline with Tween-80
# [5] = endpoint: mean survival time, dose: 100.0 mg/kg/injection, schedule: Q01DX009 (ip), vehicle: saline with Tween-80
# [6] = endpoint: mean survival time, dose: 200.0 mg/kg/injection, schedule: Q01DX009 (ip), vehicle: saline with Tween-80
smiles,measurement,setting,value
N=[N+]=CC(=O)CCC(NC(=O)C(CCC(=O)C=[N+]=N)NC(=O)CCC(N)C(=O)O)C(=O)O (stereo not given),T/C,"endpoint: mean survival time, dose: 0.01 mg/kg/injection, schedule: Q01DX009 (ip), vehicle: water",95 % of control
same,T/C,"endpoint: mean survival time, dose: 0.03 mg/kg/injection, schedule: Q01DX009 (ip), vehicle: water",96 % of control
same,T/C,"endpoint: mean survival time, dose: 0.05 mg/kg/injection, schedule: Q01DX009 (ip), vehicle: other",115 % of control and 112 % of control
same,T/C,"endpoint: mean survival time, dose: 0.05 mg/kg/injection, schedule: Q01DX009 (ip), vehicle: water",115 % of control
same,T/C,"endpoint: mean survival time, dose: 0.05 mg/kg/injection, schedule: Q01DX009 (oral), vehicle: water",103 % of control
same,T/C,"endpoint: mean survival time, dose: 0.05 mg/kg/injection, schedule: Q01DX009 (sc), vehicle: water",116 % of control
same,T/C,"endpoint: mean survival time, dose: 0.1 mg/kg/injection, schedule: Q01DX009 (ip), vehicle: other",152 % of control
same,T/C,"endpoint: mean survival time, dose: 0.1 mg/kg/injection, schedule: Q01DX009 (oral), vehicle: water",107 % of control
same,T/C,"endpoint: mean survival time, dose: 0.18 mg/kg/injection, schedule: Q01DX017 (ip), vehicle: saline",157 % of control
same,T/C,"endpoint: mean survival time, dose: 0.2 mg/kg/injection, schedule: Q01DX009 (oral), vehicle: water",120 % of control
same,T/C,"endpoint: mean survival time, dose: 0.2 mg/kg/injection, schedule: Q01DX009 (sc), vehicle: water",101 % of control
same,T/C,"endpoint: mean survival time, dose: 0.3 mg/kg/injection, schedule: Q01DX017 (ip), vehicle: saline",111 % of control
same,T/C,"endpoint: mean survival time, dose: 0.4 mg/kg/injection, schedule: Q01DX009 (oral), vehicle: water",90 % of control
same,T/C,"endpoint: mean survival time, dose: 0.4 mg/kg/injection, schedule: Q01DX009 (sc), vehicle: water",98 % of control
same,T/C,"endpoint: mean survival time, dose: 0.5 mg/kg/injection, schedule: Q01DX009 (ip), vehicle: other",116 % of control and 96 % of control and 97 % of control
same,T/C,"endpoint: mean survival time, dose: 0.5 mg/kg/injection, schedule: Q01DX017 (ip), vehicle: saline",112 % of control
same,T/C,"endpoint: mean survival time, dose: 1.0 mg/kg/injection, schedule: Q01DX009 (ip), vehicle: other",87 % of control
same,T/C,"endpoint: mean survival time, dose: 1.6 mg/kg/injection, schedule: Q03HX024 (ip), vehicle: water",100 % of control
same,T/C,"endpoint: mean survival time, dose: 3.1 mg/kg/injection, schedule: Q03HX008 (ip), vehicle: water",110 % of control
same,T/C,"endpoint: mean survival time, dose: 3.1 mg/kg/injection, schedule: Q03HX024 (ip), vehicle: water",87 % of control
same,T/C,"endpoint: mean survival time, dose: 6.25 mg/kg/injection, schedule: Q04DX003 (ip), vehicle: water",155 % of control
same,T/C,"endpoint: mean survival time, dose: 7.5 mg/kg/injection, schedule: Q04DX003 (ip), vehicle: other",162 % of control and 165 % of control and 168 % of control
same,T/C,"endpoint: mean survival time, dose: 12.5 mg/kg/injection, schedule: Q04DX003 (ip), vehicle: water",160 % of control
same,T/C,"endpoint: mean survival time, dose: 15.0 mg/kg/injection, schedule: Q04DX003 (ip), vehicle: other",168 % of control and 177 % of control and 191 % of control
same,T/C,"endpoint: mean survival time, dose: 25.0 mg/kg/injection, schedule: Q04DX003 (ip), vehicle: water",178 % of control
same,T/C,"endpoint: mean survival time, dose: 25.0 mg/kg/injection, schedule: Q08DX002 (ip), vehicle: water",169 % of control
same,T/C,"endpoint: mean survival time, dose: 30.0 mg/kg/injection, schedule: Q04DX003 (ip), vehicle: other",178 % of control and 190 % of control and 191 % of control
same,T/C,"endpoint: mean survival time, dose: 50.0 mg/kg/injection, schedule: Q08DX002 (ip), vehicle: water",165 % of control
same,T/C,"endpoint: mean survival time, dose: 60.0 mg/kg/injection, schedule: Q04DX003 (ip), vehicle: other",155 % of control and 196 % of control and 203 % of control
same,T/C,"endpoint: mean survival time, dose: 100.0 mg/kg/injection, schedule: Q01DX001 (oral), vehicle: water",124 % of control
same,T/C,"endpoint: mean survival time, dose: 100.0 mg/kg/injection, schedule: Q01DX001 (sc), vehicle: water",96 % of control
same,T/C,"endpoint: mean survival time, dose: 100.0 mg/kg/injection, schedule: Q04DX003 (ip), vehicle: water",109 % of control
same,T/C,"endpoint: mean survival time, dose: 100.0 mg/kg/injection, schedule: Q08DX002 (ip), vehicle: water",158 % of control
same,T/C,"endpoint: mean survival time, dose: 200.0 mg/kg/injection, schedule: Q01DX001 (ip), vehicle: water",118 % of control
same,T/C,"endpoint: mean survival time, dose: 200.0 mg/kg/injection, schedule: Q01DX001 (oral), vehicle: water",121 % of control
same,T/C,"endpoint: mean survival time, dose: 400.0 mg/kg/injection, schedule: Q01DX001 (ip), vehicle: water",92 % of control
O=C(CCC(O)(C(=O)c1ccccc1)c1ccccc1)c1ccccc1 (stereo not given),T/C,[1],91 % of control
same,T/C,[2],94 % of control
same,T/C,[3],88 % of control
O=[N+]([O-])c1ccc(/C(CBr)=N/N2CCCCCC2)cc1,T/C,"endpoint: mean survival time, dose: 100.0 mg/kg/injection, schedule: Q01DX001 (ip), vehicle: saline",91 % of control
same,T/C,"endpoint: mean survival time, dose: 200.0 mg/kg/injection, schedule: Q01DX001 (ip), vehicle: saline",92 % of control
same,T/C,"endpoint: mean survival time, dose: 400.0 mg/kg/injection, schedule: Q01DX001 (ip), vehicle: saline",95 % of control
N#CCC(C#N)C1C=CCC1 (stereo not given),T/C,"endpoint: mean survival time, dose: 3.13 mg/kg/injection, schedule: Q04DX003 (ip), vehicle: saline",98 % of control
same,T/C,"endpoint: mean survival time, dose: 6.25 mg/kg/injection, schedule: Q04DX003 (ip), vehicle: saline",101 % of control
ClC1(Cl)Cc2ccccc21,T/C,"endpoint: mean survival time, dose: 266.0 mg/kg/injection, schedule: Q04DX003 (ip), vehicle: saline sonified",96 % of control
same,T/C,"endpoint: mean survival time, dose: 400.0 mg/kg/injection, schedule: Q04DX003 (ip), vehicle: saline sonified",88 % of control
same,T/C,"endpoint: mean survival time, dose: 600.0 mg/kg/injection, schedule: Q04DX003 (ip), vehicle: saline sonified",100 % of control
same,T/C,"endpoint: median survival time, dose: 50.0 mg/kg/injection, schedule: Q01DX005 (ip), vehicle: saline with Tween-80",102 % of control
same,T/C,"endpoint: median survival time, dose: 100.0 mg/kg/injection, schedule: Q01DX005 (ip), vehicle: saline with Tween-80",113 % of control
same,T/C,"endpoint: median survival time, dose: 200.0 mg/kg/injection, schedule: Q01DX005 (ip), vehicle: saline with Tween-80",102 % of control
CC(C)NC(=O)C1C=C2c3cccc4c3C(CN4)CC2N(C)C1 (stereo not given),T/C,[4],93 % of control
same,T/C,"endpoint: mean survival time, dose: 50.0 mg/kg/injection, schedule: Q04DX003 (ip), vehicle: saline",94 % of control
same,T/C,[5],100 % of control
same,T/C,"endpoint: mean survival time, dose: 100.0 mg/kg/injection, schedule: Q04DX003 (ip), vehicle: saline",88 % of control
same,T/C,[6],97 % of control
same,T/C,"endpoint: mean survival time, dose: 200.0 mg/kg/injection, schedule: Q04DX003 (ip), vehicle: saline",94 % of control
CCOC(=O)c1ccc(Cl)cc1,T/C,"endpoint: mean survival time, dose: 25.0 mg/kg/injection, schedule: Q01DX009 (ip), vehicle: saline with Tween-80",101 % of control
same,T/C,[4],102 % of control
same,T/C,[5],95 % of control
C1CC[N-]CC1.C1CC[N-]CC1.O=C(O)CC(=O)O.[Pt+2],T/C,"endpoint: mean survival time, dose: 3.13 mg/kg/injection, schedule: Q04DX003 (ip), vehicle: saline with Tween-80",100 % of control
same,T/C,"endpoint: mean survival time, dose: 6.25 mg/kg/injection, schedule: Q04DX003 (ip), vehicle: saline with Tween-80",97 % of control
same,T/C,"endpoint: mean survival time, dose: 12.5 mg/kg/injection, schedule: Q04DX003 (ip), vehicle: saline with Tween-80",100 % of control
same,T/C,"endpoint: mean survival time, dose: 25.0 mg/kg/injection, schedule: Q04DX003 (ip), vehicle: saline with Tween-80",100 % of control
same,T/C,"endpoint: mean survival time, dose: 50.0 mg/kg/injection, schedule: Q04DX003 (ip), vehicle: saline with Tween-80",97 % of control
same,T/C,[1],100 % of control
same,T/C,[2],96 % of control
FC(F)(F)c1nn[nH]n1,T/C,"endpoint: mean survival time, dose: 100.0 mg/kg/injection, schedule: Q01DX009 (ip), vehicle: saline",100 % of control
same,T/C,"endpoint: mean survival time, dose: 200.0 mg/kg/injection, schedule: Q01DX009 (ip), vehicle: saline",104 % of control
same,T/C,"endpoint: mean survival time, dose: 400.0 mg/kg/injection, schedule: Q01DX009 (ip), vehicle: saline",98 % of control
[N-]=[N+]=NC1=C(Br)C(=O)OC1COC(=O)c1ccccc1 (stereo not given),T/C,"endpoint: mean survival time, dose: 50.0 mg/kg/injection, schedule: Q04DX002 (ip), vehicle: saline with Tween-80",90 % of control
same,T/C,"endpoint: mean survival time, dose: 100.0 mg/kg/injection, schedule: Q04DX002 (ip), vehicle: saline with Tween-80",90 % of control
CC(C)[CH2][Sn]([CH2]C(C)C)([CH2]C(C)C)[O]C(=O)C1(C)CCCC2(C)C3CCC(C(C)C)=CC3=CCC12 (stereo not given),T/C,"endpoint: mean survival time, dose: 3.12 mg/kg/injection, schedule: Q01DX009 (ip), vehicle: saline with Tween-80",97 % of control
same,T/C,"endpoint: mean survival time, dose: 6.25 mg/kg/injection, schedule: Q01DX009 (ip), vehicle: saline with Tween-80",90 % of control
same,T/C,"endpoint: mean survival time, dose: 12.5 mg/kg/injection, schedule: Q01DX009 (ip), vehicle: saline with Tween-80",93 % of control
CC(C)(S)CNCCSC(=O)c1ccccc1,T/C,[5],103 % of control
same,T/C,[6],100 % of control
same,T/C,"endpoint: mean survival time, dose: 400.0 mg/kg/injection, schedule: Q01DX009 (ip), vehicle: saline with Tween-80",94 % of control
Cc1csc2[nH]c(=O)[nH]c(=O)c12,T/C,[1],96 % of control
same,T/C,[2],94 % of control
same,T/C,[3],87 % of control
CCN(CC)CCNc1ccc(C)c2sc3ccc(O)cc3c(=O)c12,T/C,"endpoint: median survival time, dose: 12.0 mg/kg/injection, schedule: Q01DX009 (ip), vehicle: saline with Tween-80",106 % of control
same,T/C,"endpoint: median survival time, dose: 12.5 mg/kg/injection, schedule: Q01DX009 (ip), vehicle: saline with Tween-80",110 % of control
same,T/C,"endpoint: median survival time, dose: 25.0 mg/kg/injection, schedule: Q01DX009 (ip), vehicle: saline with Tween-80",121 % of control
same,T/C,"endpoint: median survival time, dose: 50.0 mg/kg/injection, schedule: Q01DX009 (ip), vehicle: saline with Tween-80",159 % of control
same,T/C,"endpoint: median survival time, dose: 200.0 mg/kg/injection, schedule: Q01DX009 (ip), vehicle: saline with Tween-80",103 % of control
